Experimental data: the supplement of paper PMC10307832

Tests used:
Test in all cases: relative viability (nuclei count vs DMSO), 5 days (fraction); higher = more cells survive
[1] = compound: COc1cc(-c2nn([C@H]3CC[C@H](N4CCN(C(C)=O)CC4)CC3)c3ncnc(N)c23)ccc1NC(=O)c1cc2ccccc2n1C + Nc1nc2[nH]cc(CCc3ccc(C(=O)N[C@@H](CCC(=O)O)C(=O)O)cc3)c2c(=O)[nH]1 [Pemetrexed] (partner 0.2 µM)
Procedure, shortened: (§1)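 Relative viability was taken as the ratio of nuclei in treated wells to nuclei in vehicle wells. Lung cancer cell lines in 1536-well plates received compounds by pin tool one day after seeding, either one drug alone or a fixed anchor-drug dose plus five library-drug doses (not always all listed) in √10 steps. Nuclei were counted on 4× images after 5 days of treatment, and values are medians of duplicate plates.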

[2] = compound: COc1cc(-c2nn([C@H]3CC[C@H](N4CCN(C(C)=O)CC4)CC3)c3ncnc(N)c23)ccc1NC(=O)c1cc2ccccc2n1C + C[C@@H](Oc1cc(-c2cnn(C3CCNCC3)c2)cnc1N)c1c(Cl)ccc(F)c1Cl [Crizotinib] (partner 1 µM)
Procedure, shortened: as §1

[3] = compound: COc1cc(-c2nn([C@H]3CC[C@H](N4CCN(C(C)=O)CC4)CC3)c3ncnc(N)c23)ccc1NC(=O)c1cc2ccccc2n1C + COc1cccc2cc(-c3nc([C@H]4CC[C@H](C(=O)O)CC4)n4ncnc(N)c34)[nH]c12 [OSI-027] (partner 0.5 µM)
Procedure, shortened: as §1

[4] = compound: COc1cc(-c2nn([C@H]3CC[C@H](N4CCN(C(C)=O)CC4)CC3)c3ncnc(N)c23)ccc1NC(=O)c1cc2ccccc2n1C + Nc1ncn([C@H]2C[C@H](O)[C@@H](CO)O2)c(=O)n1 [Decitabine] (partner 2 µM)
Procedure, shortened: as §1

[5] = compound: COc1cc(-c2nn([C@H]3CC[C@H](N4CCN(C(C)=O)CC4)CC3)c3ncnc(N)c23)ccc1NC(=O)c1cc2ccccc2n1C + CC1(C)CCC(c2ccc(Cl)cc2)=C(CN2CCN(c3ccc(C(=O)NS(=O)(=O)c4ccc(N[C@H](CCN5CCOCC5)CSc5ccccc5)c(S(=O)(=O)C(F)(F)F)c4)cc3)CC2)C1 [Navitoclax] (partner 0.5 µM)
Procedure, shortened: as §1

Row | Cell Line | relative viability ([1]; first compound 0.0128 µM) | relative viability ([1]; first compound 0.04048 µM) | relative viability ([1]; first compound 0.128 µM) | relative viability ([1]; first compound 1.28 µM) | relative viability ([2]; first compound 0.0128 µM) | relative viability ([2]; first compound 0.04048 µM) | relative viability ([2]; first compound 0.128 µM) | relative viability ([2]; first compound 1.28 µM) | relative viability ([3]; first compound 0.0128 µM) | relative viability ([3]; first compound 0.04048 µM) | relative viability ([3]; first compound 0.128 µM) | relative viability ([3]; first compound 1.28 µM) | relative viability ([4]; first compound 0.0128 µM) | relative viability ([4]; first compound 0.04048 µM) | relative viability ([4]; first compound 0.128 µM) | relative viability ([4]; first compound 1.28 µM) | relative viability ([5]; first compound 0.0128 µM) | relative viability ([5]; first compound 0.04048 µM) | relative viability ([5]; first compound 0.128 µM) | relative viability ([5]; first compound 1.28 µM)
1 | LU99A | 0.162 | 0.225 | 0.169 | 0.252 | 0.629 | 0.522 | 0.545 | 0.696 | 0.307 | 0.323 | 0.329 | 0.312 | 0.808 | 0.601 | 0.949 | 0.994 | 0.854 | 0.842 | 0.773 | 0.815
2 | NCI-H1355 | 1.18 | 1.06 | 1.01 | 0.967 | 1.15 | 1.07 | 1.06 | 0.946 | 0.47 | 0.315 | 0.507 | 0.433 | 0.332 | 0.35 | 0.338 | 0.372 | 1.02 | 0.923 | 0.928 | 0.967
3 | HCC-78 | 0.939 | 0.879 | 0.889 | 0.91 | 0.338 | 0.432 | 0.325 | 0.18 | 0.341 | 0.371 | 0.356 | 0.26 | 0.674 | 0.689 | 0.701 | 0.539 | 0.947 | 0.901 | 0.87 | 0.621
4 | NCI-H1563 | 0.755 | 0.778 | 0.853 | 0.582 | 0.625 | 0.805 | 0.926 | 0.729 | 0.711 | 0.86 | 0.848 | 0.59 | – | – | – | – | – | – | – | –
5 | HCC-15 | 0.227 | 0.228 | 0.198 | 0.225 | 0.89 | 0.772 | 0.808 | 0.67 | 0.832 | 0.463 | 0.616 | 0.586 | 0.822 | 0.589 | 0.638 | 0.567 | 0.755 | 0.59 | 0.672 | 0.454
6 | EKVX | 0.43 | 0.4 | 0.373 | 0.374 | 0.986 | 1.04 | 0.755 | 0.359 | 0.765 | 0.853 | 0.618 | 0.54 | 0.372 | 0.36 | 0.349 | 0.288 | 1.05 | 1.03 | 0.957 | 0.384
7 | NCI-H2087 | 0.601 | – | 0.697 | 0.707 | 1.1 | 1 | 0.703 | 0.947 | 0.692 | – | 0.611 | 0.648 | 0.331 | – | 0.198 | 0.225 | 1.03 | 0.908 | 1.02 | 1.2
8 | LK-2 | 0.298 | 0.248 | 0.27 | 0.133 | 0.215 | 0.259 | 0.187 | 0.199 | 0.267 | 0.187 | 0.198 | 0.184 | 0.339 | 0.253 | 0.288 | 0.248 | 1.04 | 0.861 | 0.621 | 0.685
